Experimental data published in patent US6100281A, “Sulphonyloxadiazolones” (Bayer Aktiengesellschaft, priority 1997, dated 2000).

System: Phytophthora infestans
Test: whole plant or invertebrate
Assay type: in vivo
Conditions: in Solanum lycopersicum, 72 h, read-out: Efficacy

SMILES	pest or weed control at 100 g/ha [%]
Cc1ccc(Oc2noc(=O)n2S(=O)(=O)N(C)C)cc1C [Example 16]	99
CCS(=O)(=O)n1c(Oc2ccc(C)cc2C)noc1=O [Example 14]	97
CN(C)S(=O)(=O)n1c(Oc2ccccc2)noc1=O [Example 18]	95
CCS(=O)(=O)n1c(Oc2cc(C)ccc2C)noc1=O [Example 2, 3-(2,5-dimethylphenoxy)-4-ethanesulphonyl-4H-[1,2,4]oxadiazol-5-one]	95
CN(C)S(=O)(=O)n1c(Oc2ccc(Br)cc2)noc1=O [Example 17]	94
Cc1ccc(C)c(Oc2noc(=O)n2S(=O)(=O)N(C)C)c1 [Example 1, N,N-dimethyl-3-(2,5-dimethylphenoxy)-5-oxo-[1,2,4]oxadiazole-4-sulphonamide]	99
Cc1ccc(Oc2noc(=O)n2S(C)(=O)=O)c(C)c1 [Example 10]	92
Cc1ccc(Oc2noc(=O)n2S(=O)(=O)N(C)C)c(C)c1 [Example 12]	97
COc1ccc(Oc2noc(=O)n2S(=O)(=O)N(C)C)cc1 [Example 13]	92

System: not listed separately
Test: logP by HPLC (EEC Directive 79/831 Annex V. A8, gradient method)
Assay type: physicochemical
Conditions: acetonitrile/0.1% aqueous phosphoric acid
Method: In Table 1, Me represents methyl. The logP values were determined in accordance with EEC Directive 79/831 Annex V. A8 by HPLC (gradient method, acetonitrile/0.1% aqueous phosphoric acid).

SMILES	chromatographic logP
Cc1ccc(Oc2noc(=O)n2S(=O)(=O)N(C)C)cc1C [Example 16]	3.15
CCN(CC)S(=O)(=O)n1c(Oc2cccc(OC)c2)noc1=O [Example 28]	3.14
COc1cccc(Oc2noc(=O)n2S(=O)(=O)N(C)C)c1OC [Example 40]	2.58
CCN(CC)S(=O)(=O)n1c(Oc2cccc(C)c2C)noc1=O [Example 36]	3.64
CN(C)S(=O)(=O)n1c(Oc2ccc3c(c2)CCC3)noc1=O [Example 57]	3.3
CN(C)S(=O)(=O)n1c(Oc2ccc(-c3ccccc3)cc2)noc1=O [Example 60]	3.56
Cc1cccc(Oc2noc(=O)n2S(=O)(=O)N(C)C)c1 [Example 20]	2.83
CN(C)S(=O)(=O)n1c(Oc2cccc(C(F)(F)F)c2)noc1=O [Example 21]	3.13
CCN(C)S(=O)(=O)n1c(Oc2cc(C)ccc2C)noc1=O [Example 64]	3.42
CCN(CC)S(=O)(=O)n1c(Oc2ccc(Cl)cc2Cl)noc1=O [Example 63]	3.88
CCN(CC)S(=O)(=O)n1c(Oc2c(C)cccc2C)noc1=O [Example 42]	3.64
CCS(=O)(=O)n1c(Oc2ccc(C)cc2C)noc1=O [Example 14]	2.95
CN(C)S(=O)(=O)n1c(Oc2ccccc2)noc1=O [Example 18]	2.48
CCN(CC)S(=O)(=O)n1c(Oc2cccc(C(F)(F)F)c2)noc1=O [Example 48]	3.68
CN(C)S(=O)(=O)n1c(Oc2ccc(OC(F)(F)F)cc2)noc1=O [Example 52]	3.3
CN(C)S(=O)(=O)n1c(Oc2ccc(Oc3ccccc3)cc2)noc1=O [Example 53]	3.58
CCN(CC)S(=O)(=O)n1c(Oc2ccc(C)cc2C)noc1=O [Example 31]	3.72
CCN(CC)S(=O)(=O)n1c(Oc2cc(C)ccc2C)noc1=O [Example 35]	3.7
COc1ccccc1Oc1noc(=O)n1S(=O)(=O)N(C)C [Example 23]	2.49
CCN(CC)S(=O)(=O)n1c(Oc2ccc(OC)cc2)noc1=O [Example 44]	3.1
COc1cccc(OC)c1Oc1noc(=O)n1S(=O)(=O)N(C)C [Example 65]	2.51
Cc1ccc(S(=O)(=O)n2c(Oc3cc(C)ccc3C)noc2=O)cc1 [Example 4]	3.93
Cc1cccc(Oc2noc(=O)n2S(=O)(=O)N(C)C)c1C [Example 30]	3.04
CCN(CC)S(=O)(=O)n1c(Oc2ccc3c(c2)CCC3)noc1=O [Example 58]	3.88
CCN(CC)S(=O)(=O)n1c(Oc2ccccc2C)noc1=O [Example 29]	3.33
CCN(CC)S(=O)(=O)n1c(Oc2ccccc2OC)noc1=O [Example 46]	3.05
CN(C)S(=O)(=O)n1c(Oc2ccccc2F)noc1=O [Example 47]	2.55

SMILES	chromatographic logP
CCN(CC)S(=O)(=O)n1c(Oc2ccc(Cl)cc2)noc1=O [Example 38]	3.53
CCN(CC)S(=O)(=O)n1c(Oc2cccc(C(=O)OC)c2)noc1=O [Example 37]	3.09
Cc1ccc(S(=O)(=O)n2c(Oc3ccc(F)cc3)noc2=O)cc1 [Example 6]	3.39
CCN(CC)S(=O)(=O)n1c(Oc2cccc(OC)c2OC)noc1=O [Example 49]	3.15
CCN(C)S(=O)(=O)n1c(Oc2ccc(Oc3ccccc3)cc2)noc1=O [Example 59]	3.83
CCN(CC)S(=O)(=O)n1c(Oc2ccc(Oc3ccccc3)cc2)noc1=O [Example 54]	4.19
CN(C)S(=O)(=O)n1c(Oc2ccc(Cl)cc2)noc1=O [Example 15]	2.94
CN(C)S(=O)(=O)n1c(Oc2cccc(Cl)c2)noc1=O [Example 55]	2.95
CN(C)S(=O)(=O)n1c(Oc2ccc(Cl)c(Cl)c2)noc1=O [Example 22]	3.37
CCN(CC)S(=O)(=O)n1c(Oc2cccc(Cl)c2)noc1=O [Example 56]	3.53
CCN(CC)S(=O)(=O)n1c(Oc2ccc(C)cc2)noc1=O [Example 45]	3.42
CN(C)S(=O)(=O)n1c(Oc2ccc(F)cc2)noc1=O [Example 19]	2.58
CCN(CC)S(=O)(=O)n1c(Oc2ccc(OC(F)(F)F)cc2)noc1=O [Example 62]	3.82
CCN(CC)S(=O)(=O)n1c(Oc2ccccc2)noc1=O [Example 39]	3.06
COc1ccc(Oc2noc(=O)n2S(=O)(=O)c2ccc(C)cc2)cc1 [Example 3]	3.34
CN(C)S(=O)(=O)n1c(Oc2ccccc2-c2ccccc2)noc1=O [Example 61]	3.37
Cc1ccc(S(=O)(=O)n2c(Oc3ccc(C)cc3C)noc2=O)cc1 [Example 9]	3.89
Cc1cc(C)cc(Oc2noc(=O)n2S(=O)(=O)N(C)C)c1 [Example 32]	3.18
CCN(CC)S(=O)(=O)n1c(Oc2cc(C)cc(C)c2)noc1=O [Example 33]	3.75
CCN(CC)S(=O)(=O)n1c(Oc2ccc(F)cc2)noc1=O [Example 50]	3.16
Cc1ccc(C)c(Oc2noc(=O)n2S(C)(=O)=O)c1 [Example 8]	2.7
Cc1ccc(Oc2noc(=O)n2S(C)(=O)=O)c(C)c1 [Example 10]	2.73
Cc1ccc(Oc2noc(=O)n2S(=O)(=O)N(C)C)c(C)c1 [Example 12]	3.13
CCN(CC)S(=O)(=O)n1c(Oc2cccc(C)c2)noc1=O [Example 43]	3.42
CN(C)S(=O)(=O)n1c(Oc2ccc(Cl)cc2Cl)noc1=O [Example 51]	3.29
COC(=O)c1cccc(Oc2noc(=O)n2S(=O)(=O)N(C)C)c1 [Example 34]	2.54
COc1ccc(Oc2noc(=O)n2S(=O)(=O)N(C)C)cc1 [Example 13]	2.5
